Patent US10336735B2, “Small molecule inhibitors of fibrosis” (THE CALIFORNIA INSTITUTE FOR BIOMEDICAL RESEARCH, priority 2014, dated 2019)

Each compound was assayed on primary human lung fibroblasts and primary rodent HSCs (assay: High content imaging assay (α-SMA staining, cell morphology) of fibroblast to myofibroblast transdifferentiation, confirmed by Western blot and RT-PCR). Conditions: Homo sapiens, Fibroblast; imaging and western based activity.
Source text: High content imaging assays have been established, using primary human lung fibroblasts and primary rodent HSCs, that enable the identification of small molecules that either inhibit myofibroblast formation/activation or induce the reversion of activated myofibroblasts to a quiescent fibroblast state. Conditions, involving serum starvation and subsequent TGF-β treatment, have been identified that facilitate robust in vitro transdifferentiation in a miniaturized (384 well plate) format that is amenable to high throughput small molecule screening. The inhibition assay is based on α-SMA immunofluorescent staining and cell morphology changes associated with fibroblast to myofibroblast transdifferentiation, Using the selective ALK-5 TGF-β1 receptor inhibitor ([…]) as a positive control, the inhibition assay has been used to initiate a screen of a collection of ˜100,000 small molecules that consists of bioactive small molecules and a diversity set that has been assembled based on 2D and 3D structural diversity and inherent “drug-likeness” properties. Preliminary screening led to the identification of multiple previously identified anti-fibrotic molecules.
A high content imaging assay, based on α-SMA staining and cell morphological changes associated with fibroblast to myofibroblast transdifferentiation, was established using primary human lung fibroblasts and primary rodent HSCs. Conditions, involving serum starvation and subsequent TGF-β treatment, were identified that facilitate robust in vitro transdifferentiation in a miniaturized (384 well plate) format that is amenable to high throughput small molecule screening. A selective ALK-5 TGF-β1 receptor inhibitor (SB-431542) was used as a positive control. […] This assay was used to evaluate compounds of Formula (I), (Ia), (II), (IIa), (III), (IIIa), (IV), (IVa), (IVb), (V), (Va), (VI), (VIa), (VIb), (VIc), (VII), (VIIa), (VIII), (VIIIa), (IX), (IXa), (X), or (Xa) generated from medicinal chemistry efforts.
The activity of Itraconazole and compounds of Formula (I), (Ia), (II), (IIa), (III), (IIIa), (IV), (IVa), (IVb), (V), (Va), (VI), (VIa), (VIb), (VIc), (VII), (VIIa), (VIII), (VIIIa), (IX), (IXa), (X), or (Xa) was confirmed by analyzing changes in gene expression of multiple genes associated with fibroblast to myofibroblast transdifferentiation using biochemical methods (i.e., Western blot and RT-PCR). These 4-day assays were used to evaluate sets of 6 compounds at a time in 4-point dose response fashion.
The EC50 for (imaging and western based) activity is graded as: +++=<500 nM; ++=500 nM to 5 μM; +=5 to 30 μM); −=>30 μM; NT=Not Tested.
CCC(C)n1ncn(-c2ccc(N3CCN(c4ccc(OC[C@@H]5CO[C@@](Cn6nccn6)(c6ccc(Cl)cc6Cl)O5)nc4)CC3)cc2)c1=O (stereo partly shown) [Compound 54] gave an EC50 of 0.5 to 5 µM. For CCC(C)n1ncn(-c2ccc(N3CCN(c4ccc(OC[C@@H]5CO[C@@](Cn6nccn6)(c6ccc(Cl)cc6Cl)O5)cc4CN)CC3)cc2)c1=O (stereo partly shown) [Compound 55], the EC50 was less than 0.5 µM. For CCC(C)n1ncn(-c2ccc(N3CCN(c4ccc(OC[C@@H]5CO[C@@](Cn6nccn6)(c6ccc(Cl)cc6Cl)O5)cc4C#N)CC3)cc2)c1=O (stereo partly shown) [Compound 56], the EC50 was 0.5 to 5 µM. CCC(C)n1ncn(-c2ccc(N3CCN(c4ccc(OC[C@@H]5CO[C@@](Cn6nccn6)(c6ccc(Cl)cc6Cl)O5)c(C#N)c4)CC3)cc2)c1=O (stereo partly shown) [Compound 57] gave an EC50 of less than 0.5 µM. For CCC(C)n1ncn(-c2ccc(N3CCN(c4ccc(OC[C@@H]5CO[C@@](Cn6nccn6)(c6ccccc6)O5)cc4F)CC3)cc2)c1=O (stereo partly shown) [Compound 58], the EC50 was less than 0.5 µM. Work on CCC(C)n1ncn(-c2ccc(N3CCN(c4ccc(OC[C@@H]5CO[C@@](Cn6nccn6)(c6ccccc6)O5)c(C(F)(F)F)c4)CC3)cc2)c1=O (stereo partly shown) [Compound 59] yielded an EC50 of 5 to 30 µM. With CCC(C)n1ncn(-c2ccc(N3CCN(c4ccc(OC[C@@H]5CO[C@@](Cn6nccn6)(c6ccccc6)O5)cc4C(F)(F)F)CC3)cc2)c1=O (stereo partly shown) [Compound 60] the EC50 was 5 to 30 µM. In the case of CCC(C)n1ncn(-c2ccc(N3CCN(c4cc(C)c(OC[C@@H]5CO[C@@](Cn6nccn6)(c6ccccc6)O5)c(C)c4)CC3)cc2)c1=O (stereo partly shown) [Compound 61], the EC50 is reported as 5 to 30 µM. With CCC(C)n1ncn(-c2ccc(N3CCN(c4cc(F)c(OC[C@@H]5CO[C@@](Cn6nccn6)(c6ccccc6)O5)c(F)c4)CC3)cc2)c1=O (stereo partly shown) [Compound 62] the EC50 was 5 to 30 µM. Compound CCC(C)n1ncn(-c2ccc(N3CCN(c4ccc(OC[C@@H]5CO[C@@](Cn6nccn6)(c6ccccc6)O5)c(F)c4F)CC3)cc2)c1=O (stereo partly shown) [Compound 63] has an EC50 of 5 to 30 µM. In the case of CCC(C)n1ncn(-c2ccc(N3CCN(c4ccc(OC[C@@H]5CO[C@@](Cn6nccn6)(c6ccccc6)O5)c(S(C)(=O)=O)c4)CC3)cc2)c1=O (stereo partly shown) [Compound 64], the EC50 is reported as 0.5 to 5 µM. For CCC(C)n1ncn(-c2ccc(N3CCN(c4ccc(OC[C@@H]5CO[C@@](Cn6nccn6)(c6ccccc6)O5)c(C#N)c4)CC3)cc2)c1=O (stereo partly shown) [Compound 65], the EC50 was less than 0.5 µM. Work on CCC(C)n1ncn(-c2ccc(N3CCN(c4ccc(OC[C@@H]5CO[C@@](Cn6nccn6)(c6ccccc6)O5)cc4C#N)CC3)cc2)c1=O (stereo partly shown) [Compound 66] yielded an EC50 of less than 0.5 µM. With CCC(C)n1ncn(-c2ccc(N3CCN(c4ccc(OC[C@@H]5CO[C@@](Cn6nccn6)(c6ccccc6)O5)cc4CN)CC3)cc2)c1=O (stereo partly shown) [Compound 67] the EC50 was 0.5 to 5 µM. CCC(C)n1ncn(-c2ccc(N3CCN(c4ccc(OC[C@@H]5CO[C@@](Cn6nccn6)(c6ccccc6)O5)c(CN)c4)CC3)cc2)c1=O (stereo partly shown) [Compound 68] gave an EC50 of less than 0.5 µM. In the case of CCC(C)n1ncn(-c2ccc(N3CCN(c4ccc(OC[C@@H]5CO[C@@](Cn6nccn6)(c6ccc(Cl)cc6Cl)O5)cc4)CC3)c(F)c2)c1=O (stereo partly shown) [Compound 69], the EC50 is reported as 0.5 to 5 µM. Work on CCC(C)n1ncn(-c2ccc(N3CCN(c4ccc(OC[C@@H]5CO[C@@](Cn6nccn6)(c6ccc(Cl)cc6Cl)O5)cc4)CC3)cc2F)c1=O (stereo partly shown) [Compound 70] yielded an EC50 of 0.5 to 5 µM. CCC(C)n1ncn(-c2ccc(N3CCN(c4ccc(OC[C@@H]5CO[C@@](Cn6nccn6)(c6ccccc6)O5)cc4)CC3)c(C#N)c2)c1=O (stereo partly shown) [Compound 71] showed an EC50 of 5 to 30 µM. In the case of CCC(C)n1ncn(-c2ccc(N3CCN(c4ccc(OC[C@@H]5CO[C@@](Cn6nccn6)(c6ccccc6)O5)cc4)C(C)C3)cc2)c1=O (stereo partly shown) [Compound 72], the EC50 is reported as 5 to 30 µM. Work on CCC(C)n1ncn(-c2ccc(N3CCN(c4ccc(OC[C@@H]5CO[C@@](Cn6nccn6)(c6ccccc6)O5)cc4)CC3C)cc2)c1=O (stereo partly shown) [Compound 73] yielded an EC50 of 5 to 30 µM. CCC(C)n1ncn(-c2ccc(N3CCCN(c4ccc(OC[C@@H]5CO[C@@](Cn6nccn6)(c6ccc(Cl)cc6Cl)O5)cc4)CC3)cc2)c1=O (stereo partly shown) [Compound 74] was tested, and the EC50 was 0.5 to 5 µM. Compound CCC(C)n1ncn(-c2ccc(N3CCN(c4ccc(OC[C@@H]5CO[C@@](Cn6nccn6)(c6ccc(Cl)cc6Cl)O5)cc4)CC3)cc2)c1=S (stereo partly shown) [Compound 75] has an EC50 greater than 30 µM. CCC(C)n1ncn(-c2cccc(N3CCN(c4ccc(OC[C@@H]5CO[C@@](Cn6nccn6)(c6ccc(Cl)cc6Cl)O5)cc4)CC3)c2)c1=O (stereo partly shown) [Compound 77] gave an EC50 greater than 30 µM. Compound CCC(C)n1ncn(-c2ccc(N3CCN(c4cccc(OC[C@@H]5CO[C@@](Cn6nccn6)(c6ccc(Cl)cc6Cl)O5)c4)CC3)cc2)c1=O (stereo partly shown) [Compound 78] has an EC50 of 0.5 to 5 µM. CCC(C)n1ncn(-c2ccc(N3CCN(c4ccccc4OC[C@@H]4CO[C@@](Cn5nccn5)(c5ccc(Cl)cc5Cl)O4)CC3)cc2)c1=O (stereo partly shown) [Compound 79] gave an EC50 greater than 30 µM. CCC(C)n1ncn(-c2ccc(N3CCN(c4ccc(OC[C@@H]5CO[C@@](Cn6cccn6)(c6cc(Cl)cc(Cl)c6)O5)cc4)CC3)cc2)c1=O (stereo partly shown) [Compound 80] was tested, and the EC50 was 0.5 to 5 µM. CCC(C)n1ncn(-c2ccc(N3CCN(c4ccc(OC[C@@H]5CO[C@@](Cn6cccn6)(c6ccc(Cl)cc6)O5)cc4)CC3)cc2)c1=O (stereo partly shown) [Compound 81] was tested, and the EC50 was less than 0.5 µM. CCC(C)n1ncn(-c2ccc(N3CCN(c4ccc(OC[C@@H]5CO[C@@](Cn6cccn6)(c6cccc(Cl)c6)O5)cc4)CC3)cc2)c1=O (stereo partly shown) [Compound 82] gave an EC50 of less than 0.5 µM. CCC(C)n1ncn(-c2ccc(N3CCN(c4ccc(OC[C@@H]5CO[C@@](Cn6cccn6)(c6ccccc6Cl)O5)cc4)CC3)cc2)c1=O (stereo partly shown) [Compound 83] gave an EC50 of less than 0.5 µM. Compound CCC(C)n1ncn(-c2ccc(N3CCN(c4ccc(OC[C@@H]5CO[C@@](Cn6cccn6)(c6ccc(Cl)c(Cl)c6)O5)cc4)CC3)cc2)c1=O (stereo partly shown) [Compound 84] has an EC50 of 0.5 to 5 µM. Work on CCC(C)n1ncn(-c2ccc(N3CCN(c4ccc(OC[C@@H]5CO[C@@](Cn6cccn6)(c6ccccc6OC)O5)cc4)CC3)cc2)c1=O (stereo partly shown) [Compound 85] yielded an EC50 of 0.5 to 5 µM. In the case of CCC(C)n1ncn(-c2ccc(N3CCN(c4ccc(OC[C@@H]5CO[C@@](Cn6cccn6)(c6cccc(OC)c6)O5)cc4)CC3)cc2)c1=O (stereo partly shown) [Compound 86], the EC50 is reported as less than 0.5 µM. Work on CCC(C)n1ncn(-c2ccc(N3CCN(c4ccc(OC[C@@H]5CO[C@@](Cn6cccn6)(c6ccc(OC)cc6)O5)cc4)CC3)cc2)c1=O (stereo partly shown) [Compound 87] yielded an EC50 of less than 0.5 µM. Work on CCC(C)n1ncn(-c2ccc(N3CCN(c4ccc(OC[C@@H]5CO[C@@](Cn6cccn6)(c6cccc(C#N)c6)O5)cc4)CC3)cc2)c1=O (stereo partly shown) [Compound 88] yielded an EC50 of 0.5 to 5 µM. CCC(C)n1ncn(-c2ccc(N3CCN(c4ccc(OC[C@@H]5CO[C@@](Cn6cccn6)(c6ccc(C#N)cc6)O5)cc4)CC3)cc2)c1=O (stereo partly shown) [Compound 89] gave an EC50 of 0.5 to 5 µM. Compound CCC(C)n1ncn(-c2ccc(N3CCN(c4ccc(OC[C@@H]5CO[C@@](Cn6cccn6)(c6ccccc6C#N)O5)cc4)CC3)cc2)c1=O (stereo partly shown) [Compound 90] has an EC50 of 0.5 to 5 µM. CCC(C)n1ncn(-c2ccc(N3CCN(c4ccc(OC[C@@H]5CO[C@@](Cn6cccn6)(c6ccccc6C(F)(F)F)O5)cc4)CC3)cc2)c1=O (stereo partly shown) [Compound 91] was tested, and the EC50 was less than 0.5 µM. CCC(C)n1ncn(-c2ccc(N3CCN(c4ccc(OC[C@@H]5CO[C@@](Cn6cccn6)(c6cccc(C(F)(F)F)c6)O5)cc4)CC3)cc2)c1=O (stereo partly shown) [Compound 92] gave an EC50 of less than 0.5 µM. CCC(C)n1ncn(-c2ccc(N3CCN(c4ccc(OC[C@@H]5CO[C@@](Cn6cccn6)(c6ccc(C(F)(F)F)cc6)O5)cc4)CC3)cc2)c1=O (stereo partly shown) [Compound 93] showed an EC50 of less than 0.5 µM. CCC(C)n1ncn(-c2ccc(N3CCN(c4ccc(OC[C@@H]5CO[C@@](Cn6cccn6)(c6ccc(OC(F)(F)F)cc6)O5)cc4)CC3)cc2)c1=O (stereo partly shown) [Compound 94] gave an EC50 of less than 0.5 µM. With CCC(C)n1ncn(-c2ccc(N3CCN(c4ccc(OC[C@@H]5CO[C@@](Cn6cccn6)(c6ccccc6C)O5)cc4)CC3)cc2)c1=O (stereo partly shown) [Compound 95] the EC50 was less than 0.5 µM. CCC(C)n1ncn(-c2ccc(N3CCN(c4ccc(OC[C@@H]5CO[C@@](Cn6cccn6)(c6cccc(C)c6)O5)cc4)CC3)cc2)c1=O (stereo partly shown) [Compound 96] gave an EC50 of less than 0.5 µM. CCC(C)n1ncn(-c2ccc(N3CCN(c4ccc(OC[C@@H]5CO[C@@](Cn6cccn6)(c6ccc(C)cc6)O5)cc4)CC3)cc2)c1=O (stereo partly shown) [Compound 97] was tested, and the EC50 was 5 to 30 µM. With CCC(C)n1ncn(-c2ccc(N3CCN(c4ccc(OC[C@@H]5CO[C@@](Cn6cccn6)(c6ccc(S(C)(=O)=O)cc6)O5)cc4)CC3)cc2)c1=O (stereo partly shown) [Compound 98] the EC50 was 0.5 to 5 µM. CCC(C)n1ncn(-c2ccc(N3CCN(c4ccc(OC[C@@H]5CO[C@@](Cn6cccn6)(c6ccc(S(N)(=O)=O)cc6)O5)cc4)CC3)cc2)c1=O (stereo partly shown) [Compound 99] gave an EC50 of 5 to 30 µM. CCC(C)n1ncn(-c2ccc(N3CCN(c4ccc(OC[C@@H]5CO[C@@](Cn6cccn6)(c6ccc(C(N)=O)cc6)O5)cc4)CC3)cc2)c1=O (stereo partly shown) [Compound 100] gave an EC50 of 0.5 to 5 µM.
